# Paper PMC7481407, “Inhibition of Pendrin by a small molecule reduces Lipopolysaccharide-induced acute Lung Injury” (Theranostics, 2020)
# Molecular target: T1, pendrin (Homo sapiens, UniProt O43511)
# T1 construct: gene SLC26A4; human wild-type pendrin expressed in human alveolar epithelial cells (hAEC)
# T1 sequence (O43511 1-780): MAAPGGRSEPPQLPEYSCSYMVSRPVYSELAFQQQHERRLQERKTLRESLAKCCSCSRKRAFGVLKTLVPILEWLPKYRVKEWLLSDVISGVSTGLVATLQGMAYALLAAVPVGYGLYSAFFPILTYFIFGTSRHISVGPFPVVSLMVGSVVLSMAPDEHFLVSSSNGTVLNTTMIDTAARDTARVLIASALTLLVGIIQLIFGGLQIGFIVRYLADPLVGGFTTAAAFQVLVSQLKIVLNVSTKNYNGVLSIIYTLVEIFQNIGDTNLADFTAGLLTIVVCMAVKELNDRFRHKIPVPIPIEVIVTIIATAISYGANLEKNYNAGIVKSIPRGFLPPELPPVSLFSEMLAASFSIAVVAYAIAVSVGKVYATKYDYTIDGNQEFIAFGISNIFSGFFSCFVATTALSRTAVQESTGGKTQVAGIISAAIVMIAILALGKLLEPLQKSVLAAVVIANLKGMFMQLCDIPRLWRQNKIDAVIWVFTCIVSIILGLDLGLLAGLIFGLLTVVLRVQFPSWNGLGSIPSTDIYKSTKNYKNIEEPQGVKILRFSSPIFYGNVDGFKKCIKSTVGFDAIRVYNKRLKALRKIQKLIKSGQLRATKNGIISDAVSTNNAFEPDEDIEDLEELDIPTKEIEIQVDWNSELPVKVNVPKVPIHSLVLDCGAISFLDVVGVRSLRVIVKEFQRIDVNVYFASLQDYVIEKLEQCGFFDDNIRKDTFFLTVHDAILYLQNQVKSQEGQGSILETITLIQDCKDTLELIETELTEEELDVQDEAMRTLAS
# Assay: Cl-/SCN- exchange activity assay in pendrin-transfected human alveolar epithelial cells, dose-response
# Format: cell-based
structure (smiles),measurement,value
CC(C)(C)c1ccc(C2=N/C(=C/c3cccs3)C(=O)O2)cc1 [YS-01],IC50,4.7 ± 0.82 µM
